Laboratory results taken from US20160178610A1, “New screening method for the treatment Friedreich's ataxia” (FRIEDRICH MIESCHER INSTITUTE FOR BIOMEDICAL RESEARCH, priority 2013, published 2016).

Columns and labels:
[1] = test system: endogenous FXN gene expression in FRDA-iPSC-derived neurons; test: FXN mRNA levels in FRDA-iPSC-derived neurons by real-time RT-PCR, normalized to RPL13A; type: cell-based, human; settings: for effect on FXN expression: FRDA-iPSC-derived neurons, treated for 3 weeks, five concentrations, biological duplicates
Procedure: (§1) FIG. 1: Exposure of FRDA-iPSC-derived neurons to [2,6] Naphtyhyridine is the cyclohexyl-[4-(4-phenyl-1-piperazin-1-yl-[2,6]naphthyridin-3-yl)pyridin-2-yl]amine, a chemical inhibitor of PRKD1, leads to an increase in FXN expression while a control compound has no effect. […] FXN mRNA levels were determined by real-time RT-PCR, normalized to RPL13A mRNA levels. *P=0.03.
For quantitative RT-PCR (qRT-PCR) experiments, total RNA was extracted from GM04078, FRDA-4078iBT, and HEK293T-FF2AP cell lines with the Absolutely RNA Microprep Kit (Stratagene). A 1-μg aliquot of total RNA was reverse transcribed with AffinityScript enzyme (Stratagene) using random hexamers according to the manufacturer's instructions. qRT-PCR was performed on a CFX96 Real-Time PCR System (Bio-Rad) using the SsoAdvanced SYBR Green Supermix (Bio-Rad, #172-5264). Relative RNA levels were calculated from CT values according to the ΔCT method and normalized to GAPDH mRNA or 18S rRNA levels. Reprogrammed cells were washed once and total RNA isolated using TRIzol (Life Technologies). After chloroform extraction, RNA was purified using a RNeasy Plus Kit (Qiagen, Germantown, Md.). RNA purity and concentration were verified using an Aligent 2100 Bioanalyzer (Santa Clara, Calif.). […]
Endoderm: Accutase was used for cell dissociation to single cells, which were then plated on matrigel in mTeSR with rock-inhibitor Y27632 (Calbiochem, Darmstadt, Germany) at a density of 100×10^3 per cm^2. […] In order to quantify the efficiency of differentiation into Pax6-expressing neural progenitors, immunostained cultures were generated and the percentage of Pax6-positive and DAPI-positive cells determined in 10 randomly selected microscopic fields. In order to quantify the efficiency of differentiation into β-III Tubulin-expressing neurons, a similar approach was used with cultures previously treated with cytosine-1-β-D-arabinofuranoside to prevent the expansion of neural progenitors. […]

[2] = test system: FRDA-iPSC-derived neurons; test: Neuron viability / compound toxicity in FRDA-iPSC-derived neuron cultures; type: cell-based, human; settings: even at 10 μM
Procedure: as §1
Importantly, treatment with the compound of formula (II) led to a 25% increase in FXN mRNA expression in FRDA neurons after only 3 weeks of treatment. […] In addition, neuron viability was not affected by exposure to the compound of formula (II), even at 10 μM.

`c1ccc(-c2c(-c3ccnc(NC4CCCCC4)c3)nc(N3CCNCC3)c3ccncc23)cc1` [compound of formula (II), cyclohexyl-[4-(4-phenyl-1-piperazin-1-yl-[2,6]naphthyridin-3-yl)pyridin-2-yl]amine] was tested, and the “increase in FXN mRNA expression” value ([1]; FRDA neurons, after 3 weeks of treatment) was 25%, the “effect on FXN expression” value [1] was “significant increase” and the “effect on FXN expression” value ([1]; listed as cyclohexyl-[4-(4-phenyl-1-piperazin-1-yl-[2,6]naphthyridin-3-yl)pyridin-2-yl]ami) was “increase”. The neuron viability [2] was “not affected”.
